Measured values: ChEMBL document CHEMBL1130938, “L-tryptophan urea amides as NK1/NK2 dual antagonists” (Bioorg Med Chem Lett, 1998)

Experiments:
Assay type in all cases: cell-based
[1] = molecular target: T1, Substance-K receptor (Homo sapiens, UniProt P21452); assay: Inhibition of cloned human NK2 (Neurokinin 2) receptor, stably expressed in chinese hamster ovary (CHO) cells was determined
T1 sequence (P21452 whole entry): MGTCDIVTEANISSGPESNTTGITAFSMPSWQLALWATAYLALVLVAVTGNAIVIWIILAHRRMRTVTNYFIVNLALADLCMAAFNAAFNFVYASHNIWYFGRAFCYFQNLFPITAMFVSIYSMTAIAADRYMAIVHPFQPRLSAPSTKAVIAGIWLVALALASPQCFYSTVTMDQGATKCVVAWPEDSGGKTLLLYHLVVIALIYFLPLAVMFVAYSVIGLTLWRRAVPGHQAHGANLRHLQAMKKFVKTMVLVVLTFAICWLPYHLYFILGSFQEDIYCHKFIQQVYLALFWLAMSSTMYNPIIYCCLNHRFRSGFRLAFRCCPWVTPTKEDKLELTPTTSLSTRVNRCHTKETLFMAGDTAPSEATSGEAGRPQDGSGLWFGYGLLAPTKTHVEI

[2] = molecular target: T2, Substance-P receptor (Homo sapiens, UniProt P25103); assay: (§1) Inhibition of cloned human NK1 (Neurokinin 1) receptor, stably expressed in chinese hamster ovary (CHO) cells was determined
[3] = molecular target: T2, Substance-P receptor; assay: as §1; settings: concentration not given here

T2 sequence (P25103 whole entry): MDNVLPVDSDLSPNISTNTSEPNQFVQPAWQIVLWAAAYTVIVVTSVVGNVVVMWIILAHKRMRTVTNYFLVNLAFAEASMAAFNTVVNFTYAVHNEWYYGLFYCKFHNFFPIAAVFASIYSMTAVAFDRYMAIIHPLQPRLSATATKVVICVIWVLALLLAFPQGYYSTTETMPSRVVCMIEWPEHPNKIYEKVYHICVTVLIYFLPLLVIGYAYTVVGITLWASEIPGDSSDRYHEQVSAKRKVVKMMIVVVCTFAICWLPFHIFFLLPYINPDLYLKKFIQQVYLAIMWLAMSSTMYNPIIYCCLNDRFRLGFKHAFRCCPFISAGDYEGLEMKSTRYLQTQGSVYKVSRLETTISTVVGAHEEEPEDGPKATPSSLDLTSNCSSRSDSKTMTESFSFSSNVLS

Structure (SMILES) | IC50 [1] [nM] | IC50 [2] [nM] | inhibition [3] [%]
CSN1CC2(CCN(C(=O)N[C@@H](Cc3c[nH]c4ccccc34)C(=O)OCc3cc(C(F)(F)F)cc(C(F)(F)F)c3)CC2)c2ccccc21 | > 1000 | 0.58 | 
Cc1cc(C)cc(CN(C)C(=O)[C@H](Cc2c[nH]c3ccccc23)NC(=O)c2ccccc2)c1 | > 5000 | > 1100 | 
CC(=O)N[C@@H](Cc1c[nH]c2ccccc12)C(=O)OCc1cc(C(F)(F)F)cc(C(F)(F)F)c1 [L-732138] | > 5000 |  | 
CSN1CC2(CCN(C(=O)N[C@@H](Cc3c[nH]c4ccccc34)C(=O)N(C)Cc3cc(C)cc(C)c3)CC2)c2ccccc21 | 1400 | 10 | 
CNC(=O)N[C@@H](Cc1c[nH]c2ccccc12)C(=O)OCc1cc(C)cc(C)c1 | > 5000 |  | 
CSN1CC2(CCN(C(=O)N[C@@H](Cc3c[nH]c4ccccc34)C(=O)OCc3ccccc3)CC2)c2ccccc21 | 4500 | 23 | 
O=C(Nc1ccccc1)[C@H](Cc1c[nH]c2ccccc12)NC(=O)N1CCC2(CCc3ccccc32)CC1 | 2100 |  | 39
CC(=O)NC1(c2ccccc2)CCN(C(=O)N[C@@H](Cc2c[nH]c3ccccc23)C(=O)N(C)Cc2ccccc2)CC1 | 928 | 77 | 
CSN1CC2(CCN(C(=O)N[C@H](Cc3c[nH]c4ccccc34)C(=O)N(C)Cc3ccccc3)CC2)c2ccccc21 | 577 | 164 | 
CSN1CC2(CCN(C(=O)N[C@@H](COCc3ccccc3)C(=O)N(C)Cc3ccccc3)CC2)c2ccccc21 | 258 | 480 | 
CSN1CC2(CCN(C(=O)N[C@@H](Cc3c[nH]c4ccccc34)C(=O)N(C)Cc3cc(C(F)(F)F)cc(C(F)(F)F)c3)CC2)c2ccccc21 | 4200 | 1 | 

Molecules with a lower IC50 [1], results first:

IC50 [1] [nM] | IC50 [2] [nM] | inhibition [3] [%] | Structure (SMILES)
211 | 332 |  | O=C(NCCc1ccccc1)[C@H](Cc1c[nH]c2ccccc12)NC(=O)N1CCC2(CCc3ccccc32)CC1
166 | 1100 |  | CSN1CC2(CCN(C(=O)N[C@@H](CCc3ccccc3)C(=O)N(C)Cc3ccccc3)CC2)c2ccccc21
139 | 242 |  | CCN(Cc1ccccc1)C(=O)[C@H](Cc1c[nH]c2ccccc12)NC(=O)N1CCC2(CCc3ccccc32)CC1
27 | 56 |  | CN(Cc1ccccc1)C(=O)[C@H](Cc1c[nH]c2ccccc12)NC(=O)N1CCC2(CCc3ccccc32)CC1
24 | 14 |  | CSN1CC2(CCN(C(=O)N[C@@H](Cc3c[nH]c4ccccc34)C(=O)N(C)Cc3ccccc3)CC2)c2ccccc21
18 | 68 |  | CN(Cc1ccccc1)C(=O)[C@H](Cc1c[nH]c2ccccc12)NC(=O)N1CCC2(C=Cc3ccccc32)CC1
14 | 227 |  | O=C(NCc1ccccc1)[C@H](Cc1c[nH]c2ccccc12)NC(=O)N1CCC2(CCc3ccccc32)CC1
0.13 | 800 |  | CC(=O)NC1(c2ccccc2)CCN(CC[C@H](CN(C)C(=O)c2ccccc2)c2ccc(Cl)c(Cl)c2)CC1 [SAREDUTANT]
